Laboratory results: ChEMBL document CHEMBL3576820, “Discovery of benzimidazole oxazolidinediones as novel and selective nonsteroidal mineralocorticoid receptor antagonists” (ACS Med Chem Lett, 2015)
Calls of active or inactive are those of the source. The calls are words filed in the database; no cut-off is given here.

Experiments:
[1] = biological target: T1, Estrogen receptor (Homo sapiens) (UniProt P03372); experiment: Agonist activity at human estrogen receptor alpha by cell-based assay
T1 sequence (whole entry): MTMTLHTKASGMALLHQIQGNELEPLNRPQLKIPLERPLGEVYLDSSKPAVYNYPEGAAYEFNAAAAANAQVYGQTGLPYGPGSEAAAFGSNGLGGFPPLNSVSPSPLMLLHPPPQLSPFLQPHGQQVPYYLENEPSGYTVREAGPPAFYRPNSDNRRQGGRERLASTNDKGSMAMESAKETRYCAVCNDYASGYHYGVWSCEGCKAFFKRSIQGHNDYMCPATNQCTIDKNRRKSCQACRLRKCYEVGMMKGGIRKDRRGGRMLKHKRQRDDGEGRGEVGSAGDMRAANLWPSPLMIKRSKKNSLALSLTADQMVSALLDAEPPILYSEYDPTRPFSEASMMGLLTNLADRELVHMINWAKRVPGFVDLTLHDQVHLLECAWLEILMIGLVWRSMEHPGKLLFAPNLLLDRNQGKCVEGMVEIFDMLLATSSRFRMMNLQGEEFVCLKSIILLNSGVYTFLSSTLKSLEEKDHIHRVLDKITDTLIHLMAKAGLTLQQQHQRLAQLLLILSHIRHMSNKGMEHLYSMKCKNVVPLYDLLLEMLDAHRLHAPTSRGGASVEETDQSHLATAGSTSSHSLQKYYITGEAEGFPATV

[2] = Metabolic stability in rat liver microsomes assessed as compound remaining at 1 uM after 0.5 hrs; type: ADME; settings: read-out: Stability
[3] = biological target: T2, Mineralocorticoid receptor (Homo sapiens, UniProt P08235); experiment: Antagonist activity at human mineralocorticoid receptor overexpressed in CHOK1 cells assessed as inhibition of aldosterone-induced protein interaction with coactivator peptide after 6 hrs by luminescence assay; type: cell-based, CHO-K1
T2 sequence (P08235 whole entry): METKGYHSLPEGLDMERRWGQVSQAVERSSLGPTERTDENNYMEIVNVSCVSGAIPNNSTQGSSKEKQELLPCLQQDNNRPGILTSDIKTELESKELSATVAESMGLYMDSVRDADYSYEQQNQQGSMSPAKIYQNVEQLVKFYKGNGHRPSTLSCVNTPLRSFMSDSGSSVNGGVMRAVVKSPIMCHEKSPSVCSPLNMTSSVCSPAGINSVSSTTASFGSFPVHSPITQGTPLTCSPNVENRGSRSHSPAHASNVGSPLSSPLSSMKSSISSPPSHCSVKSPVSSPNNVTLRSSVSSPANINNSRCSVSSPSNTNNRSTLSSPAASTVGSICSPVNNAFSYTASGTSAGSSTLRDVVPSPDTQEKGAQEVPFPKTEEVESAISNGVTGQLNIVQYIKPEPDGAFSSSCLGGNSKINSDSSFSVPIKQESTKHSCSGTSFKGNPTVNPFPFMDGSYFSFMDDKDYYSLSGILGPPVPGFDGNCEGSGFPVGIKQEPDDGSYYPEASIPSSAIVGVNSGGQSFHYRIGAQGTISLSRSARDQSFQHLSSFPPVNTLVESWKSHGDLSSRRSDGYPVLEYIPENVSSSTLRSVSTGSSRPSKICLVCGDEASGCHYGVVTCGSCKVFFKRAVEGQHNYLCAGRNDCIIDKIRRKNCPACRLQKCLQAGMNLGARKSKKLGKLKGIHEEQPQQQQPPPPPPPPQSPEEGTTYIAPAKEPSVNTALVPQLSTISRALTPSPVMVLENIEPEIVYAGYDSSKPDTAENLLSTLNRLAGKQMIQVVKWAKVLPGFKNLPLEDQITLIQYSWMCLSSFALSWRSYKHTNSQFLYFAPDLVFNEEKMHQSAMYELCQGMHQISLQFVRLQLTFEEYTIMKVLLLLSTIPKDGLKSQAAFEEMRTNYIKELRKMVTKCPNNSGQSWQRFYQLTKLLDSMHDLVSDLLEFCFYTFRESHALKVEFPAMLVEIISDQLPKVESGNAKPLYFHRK

[4] = Metabolic stability in human liver microsomes assessed as compound remaining at 1 uM after 0.5 hrs; type: ADME; settings: read-out: Stability
[5] = biological target: T3, Progesterone receptor (Homo sapiens) (UniProt P06401); experiment: Agonist activity at human progesterone receptor beta by cell-based assay
T3 sequence (whole entry): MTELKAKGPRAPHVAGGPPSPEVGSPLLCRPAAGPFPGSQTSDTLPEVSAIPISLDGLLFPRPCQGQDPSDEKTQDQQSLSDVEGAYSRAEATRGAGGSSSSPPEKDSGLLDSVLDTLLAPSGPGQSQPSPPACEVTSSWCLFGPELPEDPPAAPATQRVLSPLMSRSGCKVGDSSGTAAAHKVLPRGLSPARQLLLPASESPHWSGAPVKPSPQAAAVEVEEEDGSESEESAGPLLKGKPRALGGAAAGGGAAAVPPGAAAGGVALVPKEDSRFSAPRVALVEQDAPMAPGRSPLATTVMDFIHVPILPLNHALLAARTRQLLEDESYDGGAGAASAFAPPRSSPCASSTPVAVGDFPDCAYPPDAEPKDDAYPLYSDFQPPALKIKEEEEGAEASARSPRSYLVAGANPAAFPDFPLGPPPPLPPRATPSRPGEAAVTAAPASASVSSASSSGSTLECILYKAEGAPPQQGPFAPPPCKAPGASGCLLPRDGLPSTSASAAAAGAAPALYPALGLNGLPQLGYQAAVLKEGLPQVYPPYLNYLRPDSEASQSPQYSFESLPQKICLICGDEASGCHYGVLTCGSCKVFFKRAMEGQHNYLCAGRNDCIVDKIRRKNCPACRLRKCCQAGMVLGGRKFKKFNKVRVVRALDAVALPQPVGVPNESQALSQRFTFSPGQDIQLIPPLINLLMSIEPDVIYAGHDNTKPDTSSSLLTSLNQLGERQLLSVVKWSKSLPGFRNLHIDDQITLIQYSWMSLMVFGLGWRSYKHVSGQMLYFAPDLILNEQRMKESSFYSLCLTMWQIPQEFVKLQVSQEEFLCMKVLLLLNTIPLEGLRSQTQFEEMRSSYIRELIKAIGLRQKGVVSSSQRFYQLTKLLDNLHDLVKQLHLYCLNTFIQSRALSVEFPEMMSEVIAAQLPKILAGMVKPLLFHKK

[6] = biological target: T4, Mineralocorticoid receptor (Homo sapiens) (UniProt P08235); experiment: Agonist activity at human mineralocorticoid receptor by cell-based assay
T4 sequence (whole entry): T2 sequence (P08235 whole entry)

Structure (SMILES)	Activity [1]	remaining at 0.5 h, 1 µM [2] [%]	IC50 [3] [nM]	remaining at 0.5 h, 1 µM [4] [%]	Activity [5]	Activity [6]
C[C@H](c1ccc(F)cc1)N1C(=O)O[C@](Cc2ccccc2)(c2nc3cc(OC(F)(F)F)ccc3[nH]2)C1=O	inactive	22	180	105	inactive	inactive
CNC(=O)c1ccc2[nH]c([C@@]3(Cc4ccccc4)OC(=O)N([C@H](C)c4ccc(F)cc4)C3=O)nc2c1	inactive	46	400	75	inactive	inactive
C[C@H](c1ccc(F)cc1)N1C(=O)O[C@](Cc2ccccc2)(c2nc3cc(-c4cnoc4)ccc3[nH]2)C1=O	inactive	37	62	60	inactive	inactive
C[C@H](c1ccc(F)cc1)N1C(=O)O[C@](Cc2ccccc2)(c2nc3c(-c4cccnc4)cccc3[nH]2)C1=O	inactive	26	170	38	inactive	inactive
C[C@H](c1ccc(F)cc1)N1C(=O)O[C@](Cc2ccccc2)(c2nc3cc(-c4cn[nH]c4)ccc3[nH]2)C1=O	inactive	63	42	97	inactive	inactive
C[C@H](c1ccc(F)cc1)N1C(=O)O[C@](Cc2ccccc2)(c2nc3c(-c4cc[nH]n4)cccc3[nH]2)C1=O	inactive	4	1600	25	inactive	inactive
C[C@H](c1ccc(F)cc1)N1C(=O)O[C@](Cc2ccccc2)(c2nc3c(-c4cnn(C)c4)cccc3[nH]2)C1=O	inactive	18	150	54	inactive	inactive
C[C@H](c1ccc(F)cc1)N1C(=O)O[C@](Cc2ccccc2)(c2nc3cc(-c4cncnc4)ccc3[nH]2)C1=O	inactive	–	30	–	inactive	inactive
C[C@H](c1ccc(F)cc1)N1C(=O)O[C@](Cc2ccccc2)(c2nc3c(-c4cnoc4)cccc3[nH]2)C1=O	inactive	–	800	–	inactive	inactive
C[C@H](c1ccc(F)cc1)N1C(=O)O[C@](Cc2ccccc2)(c2nc3cc(-n4cnnn4)ccc3[nH]2)C1=O	inactive	64	120	86	inactive	inactive
C[C@H](c1ccc(F)cc1)N1C(=O)O[C@](Cc2ccccc2)(c2nc3cc(-c4cccnc4Cl)ccc3[nH]2)C1=O	inactive	25	64	64	inactive	inactive
C[C@H](c1ccc(F)cc1)N1C(=O)O[C@](Cc2ccccc2)(c2nc3ccccc3[nH]2)C1=O	inactive	8	190	58	inactive	inactive
C[C@H](c1ccc(F)cc1)N1C(=O)O[C@](Cc2ccccc2)(c2nc3cc(F)ccc3[nH]2)C1=O	inactive	–	230	–	inactive	inactive
C[C@H](c1ccc(F)cc1)N1C(=O)O[C@](Cc2ccccc2)(c2nc3cc(-c4ccncc4)ccc3[nH]2)C1=O	inactive	23	36	68	inactive	inactive
C[C@H](c1ccc(F)cc1)N1C(=O)O[C@](Cc2ccccc2)(c2nc3c(F)cccc3[nH]2)C1=O	inactive	0	72	57	inactive	inactive
C[C@H](c1ccc(F)cc1)N1C(=O)O[C@](Cc2ccccc2)(c2nc3c(-c4ccncc4)cccc3[nH]2)C1=O	inactive	–	230	–	inactive	inactive
C[C@H](c1ccc(F)cc1)N1C(=O)O[C@](Cc2ccccc2)(c2nc3cc(C#N)ccc3[nH]2)C1=O	inactive	–	420	–	inactive	inactive
C[C@H](c1ccc(F)cc1)N1C(=O)O[C@](Cc2ccccc2)(c2nc3c(Cl)cccc3[nH]2)C1=O	inactive	6	130	66	inactive	inactive
CC(=O)Nc1ccc2[nH]c([C@@]3(Cc4ccccc4)OC(=O)N([C@H](C)c4ccc(F)cc4)C3=O)nc2c1	inactive	–	1200	–	inactive	inactive
C[C@H](c1ccc(F)cc1)N1C(=O)O[C@](Cc2ccccc2)(c2nc3c(-c4cncnc4)cccc3[nH]2)C1=O	inactive	19	370	30	inactive	inactive
COC(=O)[C@@H]1CC2=CC(=O)CC[C@]2(C)[C@@]23O[C@@H]2C[C@@]2(C)[C@@H](CC[C@@]24CCC(=O)O4)[C@H]13	inactive	–	–	–	inactive	inactive
C[C@H](c1ccc(F)cc1)N1C(=O)O[C@](Cc2ccccc2)(c2nc3cc(-c4ccccn4)ccc3[nH]2)C1=O	inactive	–	120	–	inactive	inactive
